In patent US20220273659A1, “HETEROCYCLIC COMPOUNDS AS KINASE INHIBITORS” (NUVATION BIO INC., priority 2019, published 2022):
Read-outs that look alike come from different tables or passages of the source.

What was measured:
FMS kinase = target: T1, FMS kinase (Homo sapiens, UniProt P07333); assay: LanthaScreen Eu Kinase Binding Assay (ATP, fluorescent-PolyGT substrate); format: biochemical
T1 construct: purchased Invitrogen (Life Technologies)
Summary of the method: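 TR-FRET read (ex 340, em 495 and 520 nm) after EDTA/Tb-labelled antibody stop; IC50 by four-parameter logistic fit of percent inhibition. Reaction: 1.25 nM FMS, 10 min compound preincubation (3-fold series), then 1 h at room temperature with 10 μM ATP and 200 nM fluorescent PolyGT.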

CDK6 = target: T2, CDK6 (Homo sapiens, UniProt Q00534); assay: In vitro kinase inhibition IC50, luminescence (ADP Glo), retinoblastoma substrate; format: biochemical; conditions: read-out: CDK6/D1 IC50
T2 construct: purchased Invitrogen PR8422B
Summary of the method: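 IC50 derived by four-parameter logistic fit of percent inhibition, read as ADP-Glo luminescence. Reactions: 5 nM CDK6, 1 μM retinoblastoma, 25 μM ATP, test compound 0.1–200 nM final, 2 h at room temperature.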

CDK4 = target: T3, CDK4 (Homo sapiens, UniProt P11802); assay: as above; format: biochemical; conditions: read-out: CDK4/D1 IC50
T3 construct: purchased Invitrogen PR8064A
Summary of the method: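 Inhibition of CDK4 was quantified by ADP Glo luminescence with retinoblastoma as substrate. Reactions held 5 nM kinase, 1 μM retinoblastoma and 25 μM ATP and ran 2H at room temperature. A Synergy Neo reader took signals 15 min and 45 min after detection reagent, and percent inhibition was fitted to a four-parameter logistic model in XLfit to obtain IC50.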

[1] = system: DU4475 breast carcinoma cells; assay: Cancer cell proliferation assay, single agent (cell viability); format: cell-based; conditions: Homo sapiens, DU-4475; Table 4; Rb negative; treatment 144 Hr with medium change at 72 Hr; Cell Titer-Glo or resazurin
Summary of the method: (§1)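 Viability read by resazurin or CellTiter-Glo after 24 h treatment (BT-549) or 144 h with a 72 h medium change (MCF-7, DU4475). Compounds tested at 7–9 concentrations, e.g. 1.1 nM–10 μM, added the day after seeding; IC50 by nonlinear sigmoidal regression.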

CDK1 (cyclin B) = target: T4, CDK1 (cyclin B) (Homo sapiens, UniProt P06493); assay: Z'-LYTE kinase assay; format: biochemical
T4 construct: purchased Invitrogen Life Technologies (assay service)
Procedure: The plates were shaken for 30 seconds, and incubated for 60 minutes at room temperature. […] The plates were read on fluorescence plate reader with Dual emission at 445 nm and 520 nm.
The following equations were used for Z′-LYTE™ Screening Assay Data Analysis.

CDK2 (cyclin A) = target: T5, CDK2 (cyclin A) (Homo sapiens, UniProt P24941); assay: Z'-LYTE kinase assay; format: biochemical
T5 construct: purchased Invitrogen Life Technologies (assay service)
Procedure: IC50 values of compounds against CDK2 (cyclin A) were determined by Z′-LYTE™ These screening assays were performed at Invitrogen Life Technologies (Grand Island, N.Y.) on a low volume NBS, black 384-well plate (#4514, Corning). 0.1 μL of 100×test compound in 100% DMSO (at specific solutions) was mixed with 2.4 μL of Kinase Buffer (50 mM HEPES pH 7.5, 0.01% BRIJ-35, 10 mM MgCl2, 1 mM EGTA), 5 μL of 2× Kinase (1.22-10.3 ng CDK2/cyclin A)/Peptide (2 μM Ser/Thr 12), and 2.5 μL of 4×ATP solution (31 μM). The plates were shaken for 30 seconds, and incubated for 60 minutes at room temperature. Development Reagent Solution (5 μL of 1:1024 dilution) was added to the plates followed with another 30-second plate shake and the plates were further incubated at room temperature for one hour. The plates were read on fluorescence plate reader with Dual emission at 445 nm and 520 nm.
The following equations were used for Z′-LYTE™ Screening Assay Data Analysis. Percent inhibition (100-% activity) was fitted to the “four-parameter logistic model” in XLfit for determination of IC50 values.

[2] = system: MCF-7 breast adenocarcinoma cells; assay: Cancer cell proliferation assay, single agent (cell viability); format: cell-based; conditions: Homo sapiens, MCF7, Table 4; Rb positive; treatment 144 Hr with medium change at 72 Hr; Cell Titer-Glo or resazurin
Summary of the method: as §1

T3 sequence (P11802 whole entry): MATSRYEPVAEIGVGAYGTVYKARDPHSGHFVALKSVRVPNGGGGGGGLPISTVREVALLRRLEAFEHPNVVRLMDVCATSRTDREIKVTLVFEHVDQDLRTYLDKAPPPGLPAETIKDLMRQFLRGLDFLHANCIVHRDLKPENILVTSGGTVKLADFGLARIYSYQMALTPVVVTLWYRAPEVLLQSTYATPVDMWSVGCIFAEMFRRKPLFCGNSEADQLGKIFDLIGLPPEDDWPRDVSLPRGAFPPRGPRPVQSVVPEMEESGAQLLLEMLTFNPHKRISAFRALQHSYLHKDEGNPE
T3 sequence (P24385 whole entry partner): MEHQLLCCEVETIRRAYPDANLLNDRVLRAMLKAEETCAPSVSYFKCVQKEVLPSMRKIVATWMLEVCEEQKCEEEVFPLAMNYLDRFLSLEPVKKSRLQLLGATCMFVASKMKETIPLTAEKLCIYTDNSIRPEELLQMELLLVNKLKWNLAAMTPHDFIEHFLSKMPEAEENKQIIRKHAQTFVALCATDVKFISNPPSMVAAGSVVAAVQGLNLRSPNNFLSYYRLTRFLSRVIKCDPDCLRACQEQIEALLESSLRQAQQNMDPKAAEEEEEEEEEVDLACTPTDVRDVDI
T4 sequence (P06493 whole entry): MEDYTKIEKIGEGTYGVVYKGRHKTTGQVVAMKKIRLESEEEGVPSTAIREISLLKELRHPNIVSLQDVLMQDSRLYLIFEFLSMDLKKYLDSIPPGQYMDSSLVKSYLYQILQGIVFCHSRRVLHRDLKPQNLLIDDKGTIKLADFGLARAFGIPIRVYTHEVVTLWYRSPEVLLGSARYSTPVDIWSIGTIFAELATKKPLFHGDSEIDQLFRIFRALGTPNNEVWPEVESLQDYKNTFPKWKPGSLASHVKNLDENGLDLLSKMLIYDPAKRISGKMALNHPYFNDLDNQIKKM
T4 sequence (P14635 whole entry partner): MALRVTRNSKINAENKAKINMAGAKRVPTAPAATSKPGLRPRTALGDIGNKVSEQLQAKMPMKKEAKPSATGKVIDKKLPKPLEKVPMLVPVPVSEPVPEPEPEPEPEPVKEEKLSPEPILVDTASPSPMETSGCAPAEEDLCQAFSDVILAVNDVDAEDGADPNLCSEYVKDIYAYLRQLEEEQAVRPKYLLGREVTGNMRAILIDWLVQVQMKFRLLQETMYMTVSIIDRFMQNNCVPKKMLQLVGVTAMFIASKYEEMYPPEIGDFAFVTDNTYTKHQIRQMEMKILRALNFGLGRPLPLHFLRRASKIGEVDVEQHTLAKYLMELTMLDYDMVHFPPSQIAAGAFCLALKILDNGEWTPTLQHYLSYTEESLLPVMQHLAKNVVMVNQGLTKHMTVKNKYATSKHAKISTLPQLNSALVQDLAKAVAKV
T1 sequence (P07333 20-972): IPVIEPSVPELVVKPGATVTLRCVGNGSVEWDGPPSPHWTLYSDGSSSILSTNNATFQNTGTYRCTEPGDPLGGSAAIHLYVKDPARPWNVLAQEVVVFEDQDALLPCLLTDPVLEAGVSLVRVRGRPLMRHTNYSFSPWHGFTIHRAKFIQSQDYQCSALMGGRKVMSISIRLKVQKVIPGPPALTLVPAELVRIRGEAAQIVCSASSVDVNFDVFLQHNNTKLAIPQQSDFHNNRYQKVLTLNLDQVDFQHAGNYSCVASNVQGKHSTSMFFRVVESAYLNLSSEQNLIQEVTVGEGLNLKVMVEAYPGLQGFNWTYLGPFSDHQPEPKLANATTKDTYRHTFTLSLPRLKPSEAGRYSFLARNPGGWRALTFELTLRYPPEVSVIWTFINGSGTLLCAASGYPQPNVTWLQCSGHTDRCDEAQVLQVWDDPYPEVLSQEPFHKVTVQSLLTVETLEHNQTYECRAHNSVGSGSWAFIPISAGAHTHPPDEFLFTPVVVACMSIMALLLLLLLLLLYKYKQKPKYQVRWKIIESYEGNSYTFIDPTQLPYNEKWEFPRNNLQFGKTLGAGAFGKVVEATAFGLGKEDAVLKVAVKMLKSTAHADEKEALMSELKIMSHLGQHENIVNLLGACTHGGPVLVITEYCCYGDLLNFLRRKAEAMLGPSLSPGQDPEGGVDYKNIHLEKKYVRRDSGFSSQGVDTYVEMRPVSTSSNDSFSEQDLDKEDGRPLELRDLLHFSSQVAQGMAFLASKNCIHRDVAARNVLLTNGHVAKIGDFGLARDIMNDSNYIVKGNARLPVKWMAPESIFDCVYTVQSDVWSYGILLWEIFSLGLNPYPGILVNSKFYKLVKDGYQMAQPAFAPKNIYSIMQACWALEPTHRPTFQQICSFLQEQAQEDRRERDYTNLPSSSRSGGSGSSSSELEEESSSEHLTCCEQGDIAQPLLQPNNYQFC
T2 sequence (Q00534 whole entry): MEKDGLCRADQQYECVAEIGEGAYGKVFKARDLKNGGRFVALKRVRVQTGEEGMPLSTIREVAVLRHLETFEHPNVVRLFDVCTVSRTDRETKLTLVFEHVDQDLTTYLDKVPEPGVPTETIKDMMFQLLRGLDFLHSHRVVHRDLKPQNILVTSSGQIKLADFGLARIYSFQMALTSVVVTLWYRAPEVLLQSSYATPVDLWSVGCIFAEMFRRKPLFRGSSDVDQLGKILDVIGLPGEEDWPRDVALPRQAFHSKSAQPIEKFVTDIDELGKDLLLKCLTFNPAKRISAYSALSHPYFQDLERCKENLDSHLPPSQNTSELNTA
T2 sequence (P24385 whole entry partner): as the sequence (P24385 whole entry partner) above

| Structure (SMILES) | IC50 (FMS kinase) | IC50 (CDK6) | IC50 (CDK4) | IC50 [1] | IC50 (CDK1 (cyclin B); read-out: CDK1/B IC50) | IC50 (CDK2 (cyclin A)) | IC50 (CDK1 (cyclin B)) | IC50 [2] |
| --- | --- | --- | --- | --- | --- | --- | --- | --- |
| N#Cc1cc2cnc(Nc3ccc(S(N)(=O)=O)cc3)nc2n(C2CCCC2)c1=O [Compound No. 377, 4-((6-cyano-8-cyclopentyl-7-oxo-7,8-dihydropyrido[2,3-d]pyrimidin-2-yl)amino)benzenesulfonamide] | 27 nM | 11 nM | 15 nM | 365 nM | 420 nM | 25 nM | – | – |
| Cn1ccc(S(=O)(=O)N2CCC(Nc3ncc4cc(C#N)c(=O)n(C5CCCC5)c4n3)CC2)n1 [Compound No. 373, 8-cyclopentyl-2-((1-((1-methyl-1H-pyrazol-3-yl)sulfonyl)piperidin-4-yl)amino)-7-oxo-7,8-dihydropyrido[2,3-d]pyrimidine-6-carbonitrile] | 1440 nM | 4 nM | 4 nM | 200 nM | – | 42 nM | 912 nM | – |
| C[C@@]1(O)CCC[C@H]1n1c(=O)c(C#N)cc2cnc(NC3CCN(S(C)(=O)=O)CC3)nc21 [Compound No. 380, 8-((1R,2R)-2-hydroxy-2-methylcyclopentyl)-2-(1-(methylsulfonyl)piperidin-4-ylamino)-7-oxo-7,8-dihydropyrido[2,3-d]pyrimidine-6-carbonitrile] | – | 15 nM | 30 nM | 715 nM | 55 nM | 5.5 nM | – | 1220 nM |
| CCCCCCc1ccc(S(=O)(=O)N2CCC(Nc3ncc4cc(C#N)c(=O)n(C5CCCC5)c4n3)CC2)cc1 [Compound No. 382, 8-cyclopentyl-2-(1-(4-hexylphenylsulfonyl)piperidin-4-ylamino)-7-oxo-7,8-dihydropyrido[2,3-d] pyrimidine-6-carbonitrile] | – | > 200 nM | > 200 nM | > 10000 nM | > 4860 nM | 209 nM | – | 1840 nM |
| N#Cc1cc2cnc(Nc3ccc4c(c3)CCNC4)nc2n(-c2c(F)cccc2F)c1=O [Compound No. 375, 8-(2,6-difluorophenyl)-7-oxo-2-((1,2,3,4-tetrahydroisoquinolin-6-yl)amino)-7,8-dihydropyrido[2,3-d]pyrimidine-6-carbonitrile] | 13 nM | 147 nM | 132 nM | 615 nM | 1310 nM | 303 nM | – | – |
| N#Cc1cc2cnc(NC3CCN(S(=O)(=O)N4CCOCC4)CC3)nc2n(C2CCCC2)c1=O [Compound No. 383, 8-cyclopentyl-2-(1-(morpholinosulfonyl)piperidin-4-ylamino)-7-oxo-7,8-dihydropyrido[2,3-d]pyrimidine-6-carbonitrile] | – | 6 nM | 11 nM | 2440 nM | – | 8 nM | 233 nM | 145 nM |
| CS(=O)(=O)N1CCC(Nc2cc3c(cn2)cc(C#N)c(=O)n3C2CCCC2)CC1 [Compound No. 303, 1-cyclopentyl-7-((1-(methylsulfonyl)piperidin-4-yl)amino)-2-oxo-1,2-dihydro-1,6-naphthyridine-3-carbonitrile] | – | 3 nM | 3 nM | 710 nM | 97 nM | 4.5 nM | – | 660 nM |
| CS(=O)(=O)N1CCC(Nc2ncc3cc(C#N)c(=O)n([C@@H]4C[C@H]5CC[C@@H]4C5)c3n2)CC1 [Compound No. 386, 8-((1R,2R,4S)-bicyclo[2.2.1]heptan-2-yl)-2-(1-(methylsulfonyl)piperidin-4-ylamino)-7-oxo-7,8-dihydropyrido[2,3-d]pyrimidine-6-carbonitrile] | – | 4 nM | 5 nM | 870 nM | – | 9.5 nM | 118 nM | 270 nM |
| CS(=O)(=O)N1CCC(Nc2ncc3cc(C4CC4)c(=O)n(C4CCCC4)c3n2)CC1 [Compound No. 379, 8-cyclopentyl-6-cyclopropyl-2-((1-(methylsulfonyl)piperidin-4-yl)amino)pyrido[2,3-d]pyrimidin-7(8H)-one] | – | 67 nM | 16 nM | 4720 nM | > 3620 nM | 434 nM | – | 1220 nM |
| N#Cc1cc2cnc(NC3CCN(S(=O)(=O)C(F)(F)F)CC3)nc2n(C2CCCC2)c1=O [Compound No. 371, 8-cyclopentyl-7-oxo-2-((1-((trifluoromethyl)sulfonyl)piperidin-4-yl)amino)-7,8-dihydropyrido[2,3-d]pyrimidine-6-carbonitrile] | – | 25 nM | 14 nM | 2600 nM | > 5000 nM | 3410 nM | – | 515 nM |
| N#Cc1cc2cnc(Nc3ccc4c(c3)CCNC4)nc2n(C23CC(C2)C3)c1=O [Compound No. 370, 8-(bicyclo[1.1.1]pentan-1-yl)-7-oxo-2-((1,2,3,4-tetrahydroisoquinolin-6-yl)amino)-7,8-dihydropyrido[2,3-d]pyrimidine-6-carbonitrile] | – | 47 nM | 124 nM | 1220 nM | 2730 nM | 242 nM | – | 445 nM |
| CS(=O)(=O)N1CCC(Nc2ncc3cc(C#N)c(=O)n([C@H]4CCC(F)(F)C4)c3n2)CC1 [Compound No. 384, (S)-8-(3,3-difluorocyclopentyl)-2-(1-(methylsulfonyl)piperidin-4-ylamino)-7-oxo-7,8-dihydropyrido[2,3-d]pyrimidine-6-carbonitrile] | – | 20 nM | 24 nM | 5680 nM | – | 28 nM | 585 nM | 1600 nM |
| N#Cc1cc2cnc(Nc3ccc4c(c3)CCN(CC(N)=O)C4)nc2n(C2CCCC2)c1=O [Compound No. 69, 2-(6-((6-cyano-8-cyclopentyl-7-oxo-7,8-dihydropyrido[2,3-d]pyrimidin-2-yl)amino)-3,4-dihydroisoquinolin-2(1H)-yl)acetamide] | – | 7 nM | 12 nM | 1680 nM | 683 nM | 252 nM | – | 1990 nM |
| CN(C)CCN1CCc2cc(Nc3ncc4cc(C#N)c(=O)n(C5CCCC5)c4n3)ccc2C1 [Compound No. 63, 8-cyclopentyl-2-((2-(2-(dimethylamino)ethyl)-1,2,3,4-tetrahydroisoquinolin-6-yl)amino)-7-oxo-7,8-dihydropyrido[2,3-d]pyrimidine-6-carbonitrile] | – | 4 nM | 11 nM | 1440 nM | 655 nM | 190 nM | – | 266 nM |
| CS(=O)(=O)N1CCC(Nc2ncc3cc(C#N)c(=O)n(C45CC(C4)C5)c3n2)CC1 [Compound No. 369, 8-(bicyclo[1.1.1]pentan-1-yl)-2-((1-(methylsulfonyl)piperidin-4-yl)amino)-7-oxo-7,8-dihydropyrido[2,3-d]pyrimidine-6-carbonitrile] | – | 5.5 nM | 7 nM | 670 nM | 87 nM | 7 nM | – | 107 nM |
| CS(=O)(=O)N1CCC(Nc2ncc3cc(C#N)c(=O)n([C@H]4C[C@@H]5CC[C@H]4C5)c3n2)CC1 [Compound No. 387, 8-((1S,2S,4R)-bicyclo[2.2.1]heptan-2-yl)-2-(1-(methylsulfonyl)piperidin-4-ylamino)-7-oxo-7,8-dihydropyrido[2,3-d]pyrimidine-6-carbonitrile] | – | 17 nM | 20 nM | 7060 nM | – | 88 nM | 1100 nM | 580 nM |
